According to PMC6956804, “Potent antibacterial activity of MSI-1 derived from the magainin 2 peptide against drug-resistant bacteria” (Theranostics, 2020):
≈ marks a conversion by molar mass, not a printed value. Peptide text beside a SMILES is read from it.

What was measured:
[1] = tested on: Shigella flexneri; assay: microbe, parasite or virus in culture; type: cell-based
Procedure: (§1) Bacterial strains were purchased from the American Type Culture Collection (ATCC). All clinical strains were isolated from human clinical specimens by the Medical Laboratory Center of Zhongda Hospital (Nanjing, Jiangsu, China). Ndm-1, tem-1, ctx-m-1, shv-1 -carrying bacteria were constructed as previously described. The recombinant bacteria carrying drug-resistant genes were prepared in LB nutrient and induced by IPTG (1 mM) for 4 h before text. Other bacterial strains were respectively prepared in MHB and Columbia Blood Agar Base.
(§2) A standard micro-broth serial dilution assay was used to measure MIC of peptides. MIC was obtained by a microplate reader at 600 nm. MBC was determined as previously described.

[2] = tested on: E. coli A2 (ESBLs (+)); assay: microbe, parasite or virus in culture; type: cell-based; settings: E. coli A2 (ESBLs (+)), clinical strain
Procedure: as §1, §2

[3] = tested on: E. coli ATCC25922; assay: microbe, parasite or virus in culture; type: cell-based; settings: micro-broth serial dilution, 600 nm
Procedure: as §1, §2

[4] = tested on: S. pneumoniae ATCC 49619; assay: microbe, parasite or virus in culture; type: cell-based
Procedure: as §1, §2

[5] = tested on: E. coli A9 (ESBLs (+)); assay: microbe, parasite or virus in culture; type: cell-based; settings: E. coli A9 (ESBLs (+)), clinical strain
Procedure: as §1, §2

[6] = tested on: P. aeruginosa T6 (ESBLs (+)); assay: microbe, parasite or virus in culture; type: cell-based; settings: P. aeruginosa T6 (ESBLs (+)), clinical strain
Procedure: as §1, §2

[7] = tested on: E. cloacae S3 (AmpC (+)); assay: microbe, parasite or virus in culture; type: cell-based; settings: E. cloacae S3 (AmpC (+)), clinical strain
Procedure: as §1, §2

[8] = tested on: E. cloacae S1 (AmpC (+)); assay: microbe, parasite or virus in culture; type: cell-based; settings: E. cloacae S1 (AmpC (+)), clinical strain
Procedure: as §1, §2

[9] = tested on: E. faecium; assay: microbe, parasite or virus in culture; type: cell-based
Procedure: as §1, §2

[10] = tested on: S. aureus ATCC25923; assay: microbe, parasite or virus in culture; type: cell-based
Procedure: as §1, §2

[11] = tested on: P. aeruginosa T1 (ESBLs (+)); assay: microbe, parasite or virus in culture; type: cell-based; settings: P. aeruginosa T1 (ESBLs (+)), clinical strain
Procedure: as §1, §2

[12] = tested on: P. aeruginosa ATCC27853; assay: microbe, parasite or virus in culture; type: cell-based
Procedure: as §1, §2

[13] = tested on: S. epidermidis ATCC35984; assay: microbe, parasite or virus in culture; type: cell-based
Procedure: as §1, §2

[14] = tested on: E. faecalis; assay: microbe, parasite or virus in culture; type: cell-based
Procedure: as §1, §2

[15] = tested on: E. coli A5 (ESBLs (+)); assay: microbe, parasite or virus in culture; type: cell-based; settings: E. coli A5 (ESBLs (+)), clinical strain
Procedure: as §1, §2

[16] = tested on: P. aeruginosa T8 (ESBLs (+)); assay: microbe, parasite or virus in culture; type: cell-based; settings: P. aeruginosa T8 (ESBLs (+)), clinical strain
Procedure: as §1, §2

[17] = tested on: K. peneumoniae B9 (ESBLs (+)); assay: organism not typed; type: cell-based; settings: K. peneumoniae B9 (ESBLs (+)), clinical strain
Procedure: as §1, §2

[18] = tested on: K. peneumoniae B4 (ESBLs (+)); assay: organism not typed; type: cell-based; settings: K. peneumoniae B4 (ESBLs (+)), clinical strain
Procedure: as §1, §2

[19] = tested on: K. peneumoniae B6 (ESBLs (+)); assay: organism not typed; type: cell-based; settings: K. peneumoniae B6 (ESBLs (+)), clinical strain
Procedure: as §1, §2

[20] = tested on: K. peneumoniae ATCC4352; assay: organism not typed; type: cell-based
Procedure: as §1, §2

[21] = tested on: MRSE N109; assay: microbe, parasite or virus in culture; type: cell-based, Staphylococcus epidermidis; settings: MRSE N109, clinical strain
Procedure: as §1, §2

[22] = tested on: MSSE E8; assay: microbe, parasite or virus in culture; type: cell-based, Staphylococcus epidermidis; settings: MSSE E8, clinical strain
Procedure: as §1, §2

[23] = tested on: MRSE N104; assay: microbe, parasite or virus in culture; type: cell-based, Staphylococcus epidermidis; settings: MRSE N104, clinical strain
Procedure: as §1, §2

[24] = tested on: MSSE E3; assay: microbe, parasite or virus in culture; type: cell-based, Staphylococcus epidermidis; settings: MSSE E3, clinical strain
Procedure: as §1, §2

[25] = tested on: MSSA D1; assay: microbe, parasite or virus in culture; type: cell-based, Staphylococcus aureus; settings: MSSA D1, clinical strain
Procedure: as §1, §2

[26] = tested on: MRSA M101; assay: microbe, parasite or virus in culture; type: cell-based, Staphylococcus aureus; settings: MRSA M101, clinical strain
Procedure: as §1, §2

[27] = tested on: MSSA D4; assay: microbe, parasite or virus in culture; type: cell-based, Staphylococcus aureus; settings: MSSA D4, clinical strain
Procedure: as §1, §2

[28] = tested on: MRSA M108; assay: microbe, parasite or virus in culture; type: cell-based, Staphylococcus aureus; settings: MRSA M108, clinical strain
Procedure: as §1, §2

[29] = tested on: PRSP P112; assay: microbe, parasite or virus in culture; type: cell-based, Streptococcus pneumoniae; settings: PRSP P112, clinical strain
Procedure: as §1, §2

[30] = tested on: PISP F22; assay: microbe, parasite or virus in culture; type: cell-based, Streptococcus pneumoniae; settings: PISP F22, clinical strain
Procedure: as §1, §2

[31] = tested on: PISP F34; assay: microbe, parasite or virus in culture; type: cell-based, Streptococcus pneumoniae; settings: PISP F34, clinical strain
Procedure: as §1, §2

[32] = tested on: PRSP P105; assay: microbe, parasite or virus in culture; type: cell-based, Streptococcus pneumoniae; settings: PRSP P105, clinical strain
Procedure: as §1, §2

[33] = tested on: Penicillin-resistant E. coli; assay: Local E. coli infection in scalded mouse model; type: in vivo, mice; settings: 7th day; MSI-1 5 and 10 mg/kg, polymyxin B; p<0.01 vs the model group
Procedure: To further investigate whether MSI-1 could protect from bacterial infection of the skin, mice were anesthetized with pentobarbital sodium (50 mg/kg, i.p) and shaved on the dorsal surfaces. The depilated skin was secured with 2-cm-diameter plastic containers that filled up with boiling water at contact time 10 s. Afterwards, a full-thickness wound (2 cm in diameter) was cut on the burned skin of each mouse. Penicillin-resistant E. coli suspension (100 µl, 1× 10^10 CFU/ml) was slowly inoculated over wound with a pipette tip, and a gentle stream of air was aimed over the inoculation site until skin appeared wet but absent of any standing volume from the inoculum suspension. Two hours later, vehicle (3% CMC-Na), MSI-1 or polymyxin, which was suspended in sterile CMC-Na (3%) in PBS at concentration of 10, 5, 2.5 mg/ml (MSI-1) or 5 mg/ml (polymyxin), was inoculated on the same area with a pipette tip, 1 ml/kg, once a day (n=15 per group). Mice were fed in cages individually to avoid cross infection and were treated daily for 7 consecutive days. At 3rd and 7th days, cutaneous wound healing and bacteria counts in skin lesion were measured. Moreover, 12 h after the last treatment, blood samples were collected from the retro-orbital venous plexus under anesthesia (pentobarbital sodium, 50 mg/kg). Finally, all animals were euthanized by cervical dislocation to collect the lung samples for counting live bacteria. The contents of TNF-α and IL-6 in skin homogenates and serum were measured by ELISA. Skin lesion was fixed by 4% paraformaldehyde for H&E staining. The expression levels of EGF and VEGF in skin lesion were examined by immunohistochemistry. In addition, the wound scratch assay was also performed on HaCaT cells to further test whether MSI-1 improved wound healing by promoting keratinocyte migration.

[34] = tested on: penicillin resistant-E. coli isolates; assay: Acute systemic E. coli infection in mice; type: in vivo, BALB/c mice; settings: 7 days; polymyxin 5 mg/kg
Procedure: BALB/c mice (5-6 weeks) were purchased from the Laboratory Animal Center of Yangzhou University (Yangzhou, Jiangsu, China) and intraperitoneally (ip) injected with 500 μl (5× 10^8 CFU/ml) of penicillin resistant-E. coli isolates. Mice in MSI-1 treated groups (10, 5 and 2.5 mg/kg, n=16/group) and polymyxin treated group (5 mg/kg) were administered after 2 h post bacterial inoculation. After 12 h, six mice in each group were anesthetized with pentobarbital sodium (50 mg/kg body weight, i.p) and euthanized by cervical dislocation to count bacterial colonies in blood, lung, spleen, kidney and liver. Lung homogenates were collected for Gram staining. Moreover, serum TNF-α and IL-6 were measured by ELISA kits. The procedure of H&E staining for mouse lung was adapted from a published report. The survival and weight of other mice were monitored daily up to 7 days.

## CC[C@H](C)[C@H](NC(=O)CN)C(=O)NCC(=O)N[C@@H](CCCCN)C(=O)N[C@@H](Cc1ccccc1)C(=O)N[C@@H](CC(C)C)C(=O)N[C@@H](CCCCN)C(=O)N[C@@H](CCCCN)C(=O)N[C@@H](C)C(=O)N[C@@H](CCCCN)C(=O)N[C@@H](CCCCN)C(=O)N[C@@H](Cc1ccccc1)C(=O)NCC(=O)N[C@@H](CCCCN)C(=O)N[C@@H](C)C(=O)N[C@@H](Cc1ccccc1)C(=O)N[C@H](C(=O)N[C@@H](CCCCN)C(=O)N[C@H](C(=O)N[C@@H](CC(C)C)C(=O)N[C@@H](CCCCN)C(=O)N[C@@H](CCCCN)C(N)=O)[C@@H](C)CC)C(C)C [MSI-78, pexiganan] (H-GIGKFLKKAKKFGKAFVKILKK-NH2)
[1]
  MIC: 32 µg/mL (≈ 12.9 µM)
[2]
  MIC: 8 µg/mL (≈ 3.23 µM)
[3]
  MIC: 16 µg/mL (≈ 6.46 µM)
[4]
  MIC: 16 µg/mL (≈ 6.46 µM)
[5]
  MIC: 16 µg/mL (≈ 6.46 µM)
[6]
  MIC: 16 µg/mL (≈ 6.46 µM)
[7]
  MIC: 16 µg/mL (≈ 6.46 µM)
[8]
  MIC: 16 µg/mL (≈ 6.46 µM)
[9]
  MIC: 8 µg/mL (≈ 3.23 µM)
[10]
  MIC: 16 µg/mL (≈ 6.46 µM)
[11]
  MIC: 32 µg/mL (≈ 12.9 µM)
[12]
  MIC: 16 µg/mL (≈ 6.46 µM)
[13]
  MIC: 16 µg/mL (≈ 6.46 µM)
[14]
  MIC: 16 µg/mL (≈ 6.46 µM)
[15]
  MIC: 16 µg/mL (≈ 6.46 µM)
[16]
  MIC: 16 µg/mL (≈ 6.46 µM)
[17]
  MIC: 32 µg/mL (≈ 12.9 µM)
[18]
  MIC: 16 µg/mL (≈ 6.46 µM)
[19]
  MIC: 16 µg/mL (≈ 6.46 µM)
[20]
  MIC: 8 µg/mL (≈ 3.23 µM)
[21]
  MIC: 16 µg/mL (≈ 6.46 µM)
[22]
  MIC: 16 µg/mL (≈ 6.46 µM)
[23]
  MIC: 32 µg/mL (≈ 12.9 µM)
[24]
  MIC: 32 µg/mL (≈ 12.9 µM)
[25]
  MIC: 16 µg/mL (≈ 6.46 µM)
[26]
  MIC: 32 µg/mL (≈ 12.9 µM)
[27]
  MIC: 32 µg/mL (≈ 12.9 µM)
[28]
  MIC: 16 µg/mL (≈ 6.46 µM)
[29]
  MIC: 32 µg/mL (≈ 12.9 µM)
[30]
  MIC: 16 µg/mL (≈ 6.46 µM)
[31]
  MIC: 32 µg/mL (≈ 12.9 µM)
[32]
  MIC: 16 µg/mL (≈ 6.46 µM)

## Polymyxin B
[33]
  bacterial colonies in the lung and blood: obviously decreased
[34]
  body weight: marked weight maintenance effect
